From patent US10401361B2, “Intracellular organelle peptide targeted enzyme substrates” (Marker Gene Technologies, Inc., priority 2009, dated 2019)

Tested on: mannosidase
Test: Staining with targeted mannosidase substrates after incubation with mannosidase inhibitor
Format: cell-based, human
Settings: 100 uM inhibitor, 1 day (Golgi) or 5 days (ER); substrate 20 uM, 4 hours; AG06173, FIG. 2
Method: Normal, healthy human lung fibroblasts (Cell line AG06173, Coriell Institute for Medical Research, Camden, N.J.) were prepared according to example 17 and plated in an optical bottom 96 well plate at 1×10^4 cells/mL.
Cells were then incubated at 37° C. and 5% CO2 in complete EMEM and incubated for 1 (Golgi) or 5 days (ER) at 37° C., 5% CO2 with or without the mannosidase inhibitor swainsonine at 100 uM. The appropriate targeted substrate for staining either the ER or Golgi was then applied at a final concentration of 20 uM and incubated for 4 hours at 37° C., 5% CO2.
Following incubation the cells were washed in PBS and bathed in Opti-Klear™ Imaging Buffer (Marker Gene Technologies, Inc Eugene Oreg.) with or without nuclear stain Hoechst 33342. Cells were then imaged on an EVOS Auto-FL fluorescence microscope (Life Technologies) fitted with a TexasRed™ light cube.

Structure (SMILES): O[C@H]1[C@H]2[C@H](O)CCCN2C[C@H]1O [swainsonine]
- effect on mannosidase activity seen by targeted substrate staining: reduction in enzyme activity
